Results: the supplement of paper PMC10307832

What was measured:
Assay in all cases: relative viability (nuclei count vs DMSO), 5 days (fraction); higher = more cells survive
Venetoclax + Bortezomib = compound: CC1(C)CCC(CN2CCN(c3ccc(C(=O)NS(=O)(=O)c4ccc(NCC5CCOCC5)c([N+](=O)[O-])c4)c(Oc4cnc5[nH]ccc5c4)c3)CC2)=C(c2ccc(Cl)cc2)C1 [Venetoclax] + CC(C)C[C@H](NC(=O)[C@H](Cc1ccccc1)NC(=O)c1cnccn1)B(O)O [Bortezomib] (partner 0.002 µM)
Summary of the method: (§1)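 Cells from lung cancer lines were seeded into 1536-well plates and, one day later, dosed by pin tool. Treatments were either a single drug or a fixed dose of an anchor drug with five library-drug doses (not always all listed) in √10 steps. After 5 days, nuclei were stained in a one-step fixation (final 0.05% Triton X-100, 1% formaldehyde, 1 ug/ml Hoechst) and counted on 4× images, and relative viability is the treated-to-vehicle nuclei ratio, as the median of duplicate plates.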

[1] = compound: Cn1cnc2c(F)c(Nc3ccc(Br)cc3Cl)c(C(=O)NOCCO)cc21 [Selumetinib] + CC(=O)c1c(C)c2cnc(Nc3ccc(N4CCNCC4)cn3)nc2n(C2CCCC2)c1=O [Palbociclib] (partner 0.5 µM)
Summary of the method: as §1

Venetoclax + Linsitinib = compound: CC1(C)CCC(CN2CCN(c3ccc(C(=O)NS(=O)(=O)c4ccc(NCC5CCOCC5)c([N+](=O)[O-])c4)c(Oc4cnc5[nH]ccc5c4)c3)CC2)=C(c2ccc(Cl)cc2)C1 [Venetoclax] + C[C@]1(O)C[C@@H](c2nc(-c3ccc4ccc(-c5ccccc5)nc4c3)c3c(N)nccn32)C1 [Linsitinib] (partner 1 µM)
Summary of the method: as §1

Selumetinib + Dasatinib = compound: Cn1cnc2c(F)c(Nc3ccc(Br)cc3Cl)c(C(=O)NOCCO)cc21 [Selumetinib] + Cc1nc(Nc2ncc(C(=O)Nc3c(C)cccc3Cl)s2)cc(N2CCN(CCO)CC2)n1 [Dasatinib] (partner 0.075 µM)
Summary of the method: as §1

Row | Cell Line | relative viability (Venetoclax + Bortezomib; first compound 0.01 µM) | relative viability (Venetoclax + Bortezomib; first compound 0.03162 µM) | relative viability (Venetoclax + Bortezomib; first compound 0.1 µM) | relative viability (Venetoclax + Bortezomib; first compound 0.3162 µM) | relative viability (Venetoclax + Bortezomib; first compound 1 µM) | relative viability ([1]; first compound 0.02 µM) | relative viability ([1]; first compound 0.06325 µM) | relative viability ([1]; first compound 0.2 µM) | relative viability ([1]; first compound 0.6325 µM) | relative viability (Venetoclax + Linsitinib; first compound 0.01 µM) | relative viability (Venetoclax + Linsitinib; first compound 0.03162 µM) | relative viability (Venetoclax + Linsitinib; first compound 0.1 µM) | relative viability (Venetoclax + Linsitinib; first compound 0.3162 µM) | relative viability (Venetoclax + Linsitinib; first compound 1 µM) | relative viability (Selumetinib + Dasatinib; first compound 0.02 µM) | relative viability (Selumetinib + Dasatinib; first compound 0.06325 µM) | relative viability (Selumetinib + Dasatinib; first compound 0.2 µM) | relative viability (Selumetinib + Dasatinib; first compound 0.6325 µM)
1 | 201T | 1.11 | 1.03 | 1.11 | 1.09 | 1.06 | 0.357 | 0.352 | 0.314 | 0.329 | 0.986 | 1.01 | 1.03 | 1.03 | 1.01 | 0.589 | 0.571 | 0.585 | 0.555
2 | A549 | – | – | – | – | – | – | – | – | – | 0.586 | 0.597 | 0.524 | 0.568 | 0.558 | – | – | – | –
3 | A-427 | 0.983 | 0.988 | 0.982 | 1.08 | 1.06 | 0.503 | 0.496 | 0.51 | 0.538 | 1.06 | 1.18 | 1.1 | 1.16 | 1.19 | 0.785 | 0.729 | 0.555 | 0.407
4 | ABC-1 | 0.291 | 0.314 | 0.446 | 0.31 | 0.309 | 0.642 | 0.672 | 0.555 | 0.5 | 0.7 | 0.878 | 0.697 | 0.81 | 0.813 | 0.512 | 0.37 | 0.47 | 0.566
5 | BEN | 0.61 | 1.06 | 0.868 | 0.837 | 0.749 | 0.466 | 0.53 | 0.462 | 0.509 | 0.91 | 0.919 | 0.769 | 0.842 | 0.997 | 0.295 | 0.341 | 0.368 | 0.371
6 | CAL-12T | 0.976 | 1.14 | 0.954 | 0.901 | 0.877 | 0.385 | 0.26 | 0.222 | 0.191 | 0.728 | 0.931 | 0.685 | 0.776 | 0.691 | 0.363 | 0.258 | 0.285 | 0.258
7 | COR-L23 | 0.91 | 1.06 | 0.982 | 0.98 | 0.896 | 0.311 | 0.289 | 0.301 | 0.241 | 0.864 | 0.953 | 0.879 | 0.897 | 0.815 | 0.462 | 0.488 | 0.488 | 0.47
8 | COR-L 105 | 0.867 | 0.902 | 0.751 | 0.777 | 0.691 | 0.449 | 0.404 | 0.383 | 0.392 | 0.934 | 0.943 | 0.834 | 0.81 | 0.871 | 0.328 | 0.239 | 0.224 | 0.22
9 | Calu-6 | 0.981 | 0.972 | 1.02 | 1.08 | 1.05 | – | – | – | – | 0.897 | 0.943 | 1.01 | 0.901 | 0.896 | – | – | – | –
10 | ChaGo-K-1 | 1.08 | 1.11 | – | 1.08 | 0.926 | 0.94 | 0.966 | 0.895 | 0.848 | – | – | – | – | – | 0.587 | 0.615 | 0.664 | 0.592
11 | EBC-1 | 0.409 | 0.604 | 0.609 | 0.511 | 0.481 | – | – | – | – | 0.902 | 0.963 | 0.912 | 0.837 | 0.786 | – | – | – | –
12 | EKVX | 1.04 | 1.05 | 1.04 | 1.14 | 0.842 | 0.285 | 0.278 | 0.227 | 0.186 | 0.909 | 0.976 | 0.88 | 1.03 | 0.844 | 0.469 | 0.567 | 0.371 | 0.276
13 | EMC-BAC-2 | 1.02 | 1.05 | 0.958 | 1.02 | 1.04 | 0.554 | 0.53 | 0.55 | 0.52 | 0.789 | 0.834 | 0.816 | 0.814 | 0.787 | 0.352 | 0.419 | 0.379 | 0.391
14 | EPLC-272H | – | 0.957 | 0.852 | 0.872 | 0.947 | 0.271 | 0.256 | 0.287 | 0.232 | – | 1.31 | 1.06 | 1.45 | 1.07 | 0.294 | 0.297 | 0.355 | 0.174
15 | H3255 | 0.784 | 0.855 | 0.626 | 0.825 | 0.644 | 0.318 | 0.353 | 0.339 | 0.339 | 1 | 0.953 | 0.809 | 0.873 | 0.915 | 0.41 | 0.358 | 0.329 | 0.344
16 | HARA | 1.14 | 1.13 | 0.937 | 1.12 | 1.1 | 0.359 | 0.244 | 0.236 | 0.165 | 0.833 | 0.93 | 0.911 | 0.927 | 0.928 | 0.28 | 0.288 | 0.247 | 0.271
17 | HCC-15 | 1.05 | 1.04 | 0.964 | 1 | 0.875 | 0.564 | 0.537 | 0.355 | 0.253 | 0.763 | 0.826 | 0.742 | 0.794 | 0.771 | 0.296 | 0.231 | 0.19 | 0.146
18 | HCC-44 | 0.85 | 0.93 | 0.948 | 0.829 | 0.904 | 1 | 0.971 | 1.01 | 1.09 | 0.613 | 0.728 | 0.67 | 0.664 | 0.609 | – | – | – | –
19 | HCC-78 | 0.523 | 0.583 | 0.482 | 0.525 | 0.477 | 0.486 | 0.488 | 0.498 | 0.423 | 0.494 | 0.563 | 0.433 | 0.571 | 0.596 | 0.395 | 0.344 | 0.347 | 0.364
